Tested on: skin
Assay: Bakuchiol penetration to skin from low pH formulations
Conditions: in low pH formulations compared to neutral/alkaline pH formulations

Penetration to skin: improved penetration to skin
Structure (SMILES): C=C[C@@](C)(/C=C/c1ccc(O)cc1)CCC=C(C)C [bakuchiol, Bakuchiol]
